# Experimental data as given in ChEMBL document CHEMBL1135890, “Structure-activity relationships of 2'-fluoro-2',3'-unsaturated D-nucleosides as anti-HIV-1 agents” (J Med Chem, 2002).
# Target: Adenosine deaminase (Bos taurus) (UniProt P56658)
# Test: Michaelis constant was determined against mammalian Adenosine deaminase; NS = not a substrate of adenosine deaminase
# Chain of Adenosine deaminase (Bos taurus) (P56658 whole entry, looked up): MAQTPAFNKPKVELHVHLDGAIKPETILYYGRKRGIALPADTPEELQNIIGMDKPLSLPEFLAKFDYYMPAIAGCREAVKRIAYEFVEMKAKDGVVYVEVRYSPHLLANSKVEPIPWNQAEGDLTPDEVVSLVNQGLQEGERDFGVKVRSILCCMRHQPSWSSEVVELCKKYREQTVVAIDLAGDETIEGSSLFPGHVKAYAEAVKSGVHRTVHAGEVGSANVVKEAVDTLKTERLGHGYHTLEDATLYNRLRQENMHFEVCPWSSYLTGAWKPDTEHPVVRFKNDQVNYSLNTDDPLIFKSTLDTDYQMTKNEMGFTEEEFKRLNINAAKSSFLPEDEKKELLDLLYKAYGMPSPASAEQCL
smiles,measurement,value
Nc1ncnc2c1ncn2[C@@H]1O[C@H](CO)C=C1F,NS,Not a substrate
